Two compounds from patent US7964643B2, “Aryl alkyl sulfonamides as therapeutic agents for the treatment of bone conditions” (The University Court of the University of Aberdeen, priority 2004, dated 2011) can be followed below.

Read-outs that look alike come from different tables or passages of the source.

Type in all cases: cell-based
Test [1] deals with osteoblasts. Put plainly: Alamar Blue mouse osteoblast assay. The settings on record: osteoblast survival, after 72 hours exposure, FIG. 1, read-out: IC50 against osteoblasts (FIG. 1). Here is the method:
Osteoblasts were isolated as described above and plated at 10^4 cells/well in 96-well plates in 100 μL of […]MEM supplemented with 10% FCS and antibiotics. Test compounds were added after 24 hours and left for 72 hours. Cell viability was assessed using the Alamar Blue assay as described for J774 macrophages. Alamar Blue (Biosource International) was added undiluted to each well (1:10 v/v, 10 μL). The plate was incubated at 37° C. for 3 to 4 hours and the fluorescence was measured at 570 nm, with a 25 nm bandwidth.
Osteoblast Isolation. Briefly, osteoblasts were isolated from the calvarial bones of 2-day-old mice by sequential collagenase digestion (type I collagenase, Sigma) and cultured in αMEM supplemented with 10% FCS (foetal calf serum) and penicillin and streptomycin at 37° C. in 5% CO2.
More specifically, osteoblasts were obtained from a collagenase digestion of the calvaria (skull bones) of 2-3 day old neo-natal C57/bl6 mice. At this stage in their development these are soft and easily removed. The calvaria from 5-6 mice were carefully dissected and washed in HBSS (Hank's balanced saline solution). The calvaria were placed in a 15 mL tube and shaken at 37° C. in 4 mL collagenase (10 mg/ml) for 10 minutes. This removes the excess unwanted tissue. The liquid was disposed of and a further 4 mL collagenase (10 mg/ml) added to the tube. […]
In general terms: Alamar Blue is a resazurin reagent that responds to reducing activity.

The subject of test [2] is J774 macrophage cell line. Put plainly: Alamar Blue macrophage J774 viability assay. The settings on record: Mus musculus, J774, 72 h. Here is the method: Initial screening of candidate compounds was performed using viability assays, on cultures of the macrophage cell line J774, which have been used before as a model system for osteoclast survival (see, e.g., Luckman et al., 1998). The assays are based on the survival of the J774 macrophage cell line; macrophages are closely related to osteoclasts, and contain similar high levels of esterase activity.
J774 cells were plated at 10^4 cells per well in 150 μL αMEM (α Modified Eagle Medium) in 96-well plates and grown overnight. The next day, compounds were added to the cultures, and culture was continued for another 72 hours. At the end of the culture period cell survival was determined using an Alamar Blue assay as previously described (see, e.g., Nociari et al., 1998).
Alamar Blue is an oxidation-reduction sensitive indicator. The dye itself is in the oxidised state, which is blue and non-fluorescent. The dye can accept electrons from reducing species, such as NADPH and FADH, to form a reduced dye species, which is red and fluorescent. Thus the transformation from oxidised form to reduced form can be measured by fluorimetric or colourimetric means. For fluorescence measurements, 530-560 nm excitation and 590 nm emission wavelengths are typically used. For colourimetric measurements, absorbance is measured at 570 nm (reduced form) and 600 nm (oxidised form) and a simple calculation performed to determine the relative quantities of the two species.
A high ratio of the reducing species, NADPH and FADH, to the corresponding oxidised species, NADP and FAD, is an indicator that cells are proliferating and viable. A low ratio indicates cells that are quiescent or non-viable.
Briefly, Alamar Blue (Biosource International) was added undiluted to the each well (1:10 v/v, 15 μL). The plate was incubated at 37° C. for 3-4 hours and the fluorescence was measured at 570 nm, with a 25 nm bandwidth. A high reading indicated cells with normal viability, and a low reading indicates cells that have been damaged and are no longer proliferating normally. The controls gave a high fluorescence reading, indicating a high number of live, healthy cells. A potent test compound gave a low fluorescence reading. The average results for each test compound (n=5) were expressed as a percent (%) of the average control value.
Addition of Compounds. All of the compounds studied were made up as 100 mM solutions in DMSO. These stock solutions were then diluted 100 or 1000× in culture medium (αMEM). From these 1 mM or 100 μM solutions, convenient quantities (3-15 μL) were added directly to the wells so as to give the desired final compound concentration.

Test [3] concerns osteoclast precursors. Put plainly: Murine co-culture system, osteoclast formation (osteoclast number by TRAcP staining). To be noted: Mus musculus, after 72 hours exposure, FIG. 2, read-out: IC50 against osteoclast precursors (FIG. 2). How it is done:
The first model system, the murine co-culture system, studies the formation of osteoclasts from precursors present in the bone marrow. The number of osteoclasts and the amount of dentine resorption was measured.
Osteoclast formation and activity was studied using an adaptation (see, e.g., van't H of & Ralston, 1997) of the osteoblast-bone marrow co-culture assay originally described by Takahashi et al., 1988.
Co-Culture Methods. Co-culture (see, e.g., Van't H of et al., 1997) is a method to study the formation of osteoclasts from their precursors. In this assay, osteoblasts were obtained from the calvaria of 2-3 day old neonatal mice. […] At the end of the culture osteoclasts were identified by TRAcP staining and the resorption activity was measured in the same manner as for rabbit osteoclasts.
Osteoblast Plating. […] The cells were counted and then seeded in a 96 well plated containing dentine slices, at 8×10^3 cells per well in 100 μl medium containing 1000× dilution of stock 1,25-dihydroxyvitamin D3 (final conc. 10 nM/well) to stimulate the expression of RANKL and cultured overnight. […]
More specifically, the femurs and tibia were dissected from 2-3 adult C57/bl6 mice (3-6 months old) and the surrounding tissue was removed. […] The bone marrow cells were counted and then added to the 96 well plate containing the osteoblasts at 2×10^5 cells/well in 50 μL medium. […]

Setting [4] is: 72 hours culture with compound, Alamar Blue, read-out: IC50 (J774).

What is called IC50 is the midpoint of a concentration-inhibition curve. In the case of `O=S(=O)(NCCCCO)c1ccc(-c2ccccc2)cc1` [ABD-155, Biphenyl-4-sulfonic acid-(4-hydroxybutyl)-amide], the IC50 was more than 100 µM in test [1]; 18 ± 3 µM in test [2] (setting [4]); less than 20 µM in test [2] (after 72 hours exposure, FIG. 1, read-out: IC50 against J774 macrophages (FIG. 1)).

In the case of `Cc1cc(S(=O)(=O)NCCCCO)ccc1-c1ccc(F)cc1F` [ABD-295, 2′,4′-Difluoro-2-methylbiphenyl-4-sulfonic acid-(4-hydroxybutyl)-amide], the IC50 came out at 0.2 µM in test [3] and 0.8 ± 0.1 µM in test [2] (setting [4]).
